In this experiment the test system is GUMC-403. Briefly: viability at highest tested concentration (max response) relative to DMSO (% of DMSO control); higher = less cytotoxic. Conditions: library / dose series: MIPE library, 11-point 1:3 dilution, 48 h. The essentials:
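GUMC-403 papilloma cells, derived from a patient and expanded by conditional reprogramming, were dispensed at 700/well into 1536-well plates in 5 μL F + Y medium. A pin tool delivered 23 nL of each compound across an 11-point 1:3 dilution series for 48 h. CellTiter-Glo luminescence, read on a ViewLux, was normalised so that vehicle wells equalled 100% and empty wells 0%. Values report viability at the highest tested concentration relative to vehicle control.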

Each structure is given as a SMILES string.

Where the note is “top concentration 46.1 µM”, `CC(C)(N)c1ccc(-c2nc3ccccc3nc2-c2ccccc2)cc1` gave a viability of 116.

Molecule `O=C(CC12CC3CC(CC(C3)C1)C2)Nc1cccc2nc(NCCNCCO)ccc12` yielded a viability (top concentration 46.1 µM) of 69.8.

Turning to `CCCC1OC2C[C@H]3[C@@H]4CCC5=CC(=O)C=C[C@]5(C)[C@H]4C(O)C[C@]3(C)[C@]2(C(=O)CO)O1` (some centres not stated), the viability (top concentration 46.1 µM) worked out at 121.

Where the note is “top concentration 46.1 µM”, `COc1cc(/C=C/C(=O)O)ccc1O` came in with a viability of 115.

Take `CN1C(=O)/C(=C(NC2=CC=C(I)C=C2F)\C3=C1\N=C/N(C[C@@H](O)CO)C3=O)F`: under “top concentration 46.1 µM”, the viability is 28.9.

In the case of `Cc1ccc(-n2nc(C(C)(C)C)cc2NC(=O)Nc2ccc(OCCN3CCOCC3)c3ccccc23)cc1`, the viability (top concentration 46.1 µM) worked out at 56.

`C[N+](C)([O-])CCNc1ccc(NCC[N+](C)(C)[O-])c2c1C(=O)c1c(O)ccc(O)c1C2=O` came in with a viability (top concentration 46.1 µM) of 104.

As for `COc1ccc(C(=O)N2CCCC2=O)cc1`, where the note is “top concentration 46.1 µM”, the viability was found to be 119.

`C=CC(=O)Nc1cccc(Oc2nc(Nc3ccc(N4CCN(C)CC4)cc3)ncc2Cl)c1` displayed a viability (top concentration 46.1 µM) of 26.8.

The molecule `CCC(C)SSc1ncc[nH]1` (configuration not stated) registered a viability (top concentration 46.1 µM) of 101.

For the molecule `NC(=O)Nc1cc(-c2ccc(CN3CCOCC3)cc2)sc1C(N)=O`, the viability (top concentration 46.1 µM) was 70.6.

In turn, `CC/C=C\C[C@H]1C(=O)CC[C@@H]1CC(=O)OC` gave a viability (top concentration 46.1 µM) of 120.

`O=C1Cc2cc(CCN3CCN(c4nsc5ccccc45)CC3)c(Cl)cc2N1` displayed a viability (top concentration 46.1 µM) of 100.

As for `NC/1=N/C(=O)C2=C([NH]C=C2CCC3=CC=C(C=C3)C(=O)N[C@@H](CCC(O)=O)C(O)=O)N1`, for the setting “top concentration 46.1 µM”, the viability was found to be 119.

Consider `CCN(CC)CCOC1=CC=C(NC2=NC=C3\C=C(/C(=O)N(C)C3=N2)C4=C(Cl)C=CC=C4Cl)C=C1`, for which, for the setting “top concentration 46.1 µM”, the viability came to 75.4.

In turn, `C[C@H]1[C@@H](OC(=O)CCC(=O)O)O[C@@H]2O[C@@]3(C)CC[C@H]4[C@H](C)CC[C@@H]1[C@@]24OO3` showed a viability (top concentration 46.1 µM) of 97.7.

In turn, `C[N]1C=C(C=N1)C2=CC=C3N=CC\4=C(N(C(=O)\C=C4)C5=CC6=C(CCN6C(=O)C=C)C=C5)C3=C2` displayed a viability (top concentration 46.1 µM) of 104.

In turn, `CC(C)(O)CC[C@@H](O)[C@](C)(O)[C@H]1CC[C@@]2(O)C/3=C/C(=O)[C@@H]4C[C@@H](O)[C@@H](O)C[C@]4(C)[C@H]3CC[C@]12C` returned a viability (top concentration 46.1 µM) of 111.

For the molecule `CC(C)c1cnn2c(NCc3ccccc3)cc(NCCCCCCN)nc12`, the viability (top concentration 46.1 µM) is 72.8.

On to `CCn1c(-c2nonc2N)nc2c(C#CC(C)(C)O)ncc(OC[C@H]3CCCNC3)c21`, for which the viability (top concentration 46.1 µM) was determined as 100.

`C[C@H](CCC(=O)O)[C@H]1CC[C@H]2[C@@H]3[C@H](O)C[C@@H]4C[C@H](O)CC[C@]4(C)[C@H]3CC[C@]12C` yielded a viability (top concentration 46.1 µM) of 128.

Where the note is “top concentration 46.1 µM”, `CN1C(=O)C(=C/2N(C(=O)N(C3CC3)C(=O)C2=C1/NC4=CC=C(I)C=C4F)C5=CC=CC(=C5)NC(C)=O)\C` showed a viability of 87.7.

Regarding `CCC1(c2ccccc2)C(=O)NCNC1=O`, the viability (top concentration 46.1 µM) came to 105.

As to `CC(C)[C@H](N)C(=O)OCCOC[N]1C=NC2=C1\N=C(N)/NC2=O`, the viability (top concentration 46.1 µM) is 107.

`CC(=O)CC(C1=CC=CC=C1)C/2=C(O)/C3=CC=CC=C3OC2=O` (configuration not stated): the viability (top concentration 46.1 µM) is 118.

`NC(=O)c1ccc(N(C(N)=O)c2c(F)cccc2F)nc1-c1ccc(F)cc1F` gave a viability (top concentration 46.1 µM) of 109.

Regarding `N#Cc1ccc(Oc2ccc3c(c2)COB3O)cc1`, for the setting “top concentration 46.1 µM”, the viability stood at 124.

Molecule `CC(C)(C)NC(=O)[C@H]1CC[C@H]2[C@@H]3CC[C@H]4NC(=O)\C=C/[C@]4(C)[C@H]3CC[C@]12C` had a viability (top concentration 46.1 µM) of 66.2.

Regarding `N=C(N)NC(=O)c1nc(Cl)c(N)nc1N`, the viability (top concentration 46.1 µM) turned out to be 125.

`C[Se]CCC(N)C(=O)O` (configuration not stated): the viability (top concentration 92.2 µM) was determined as 98.

For the molecule `N#C[C@H](O[C@@H]1O[C@H](CO[C@@H]2O[C@H](CO)[C@@H](O)[C@H](O)[C@H]2O)[C@@H](O)[C@H](O)[C@H]1O)c1ccccc1`, for the setting “top concentration 46.1 µM”, the viability was 98.6.

`CN(C)CCCC1(c2ccc(F)cc2)OCc2cc(C#N)ccc21` (configuration not stated) registered a viability (top concentration 46.1 µM) of 98.5.

As for `CC1(N2CCC(n3c([C@@H]4CCCNC4)nc4ccccc43)CC2)CCCCCCC1`, the viability (top concentration 46.1 µM) is 115.

As to `Cn1cnc2c1c(=O)[nH]c(=O)n2C`, the viability (top concentration 46.1 µM) amounted to 127.

As for `O=C(N[C@@H](c1ccccc1)[C@@H]1CCCCN1)c1cccc(C(F)(F)F)c1Cl`, the viability (top concentration 46.1 µM) stood at 99.

For the setting “top concentration 46.1 µM”, `Cc1nc(C(=O)NCC(=O)O)c(O)c2ccc(Oc3ccccc3)cc12` had a viability of 132.

Take `CN1CCC(CNc2ccc3ncc(-c4cccc(OC(F)(F)F)c4)n3n2)CC1`: the viability (top concentration 46.1 µM) amounted to 52.5.

Regarding `O=C(c1ccc(F)cc1)C1CCN(CCn2c(=O)[nH]c3ccccc3c2=O)CC1`, the viability (top concentration 46.1 µM) was determined as 110.

For the molecule `Cc1nc(-c2ccc(-c3ccc(C(=O)N4CCc5cc6c(cc54)C4(CCN(C)CC4)CO6)cc3)c(C)c2)no1`, the viability (top concentration 46.1 µM) was 124.

Turning to `C[C@H]1[C@@H](C(=O)C[C@H]2O[C@@H]3O[C@]4(C)CC[C@H]5[C@H](C)CC[C@@H]([C@H]2C)[C@@]35OO4)O[C@@H]2O[C@]3(C)CC[C@H]4[C@H](C)CC[C@@H]1[C@@]24OO3`, the viability (top concentration 46.1 µM) was found to be 121.

On to `N#CCNC(=O)c1ccc(-c2ccnc(Nc3ccc(N4CCOCC4)cc3)n2)cc1`, for which the viability (top concentration 46.1 µM) amounted to 9.51.

On to `COc1cccc2c1CCCC2CCCN1CCN(C2CCCCC2)CC1` (configuration not stated), for which the viability (top concentration 46.1 µM) was 112.

Regarding `N[C@H]2CN(CC12CC1)c3c(F)cc4c(c3Cl)[N@@](C=C(C4=O)C(=O)O)C5C[C@H]5F` (some centres not stated), the viability (top concentration 46.1 µM) is 103.

On to `O=[S+]([O-])(NCCNC/C=C/c1ccc(Br)cc1)c1cccc2cnccc12`, for which the viability (top concentration 46.1 µM) was determined as 72.3.

In turn, `COc1ccc2c(c1)c(CC(=O)OCC(=O)O)c(C)n2C(=O)c1ccc(Cl)cc1` yielded a viability (top concentration 46.1 µM) of 90.3.

As to `CC/1=C(/N2[C@H](SC1)[C@H](NC(=O)C(N)C3=CC=CC=C3)C2=O)C(O)=O` (some centres not stated), under “top concentration 46.1 µM”, the viability came out at 106.

Turning to `C/C=C(/C)C(=O)O[C@H]1C(C)=C[C@]23C(=O)[C@@H](C=C(CO)[C@@H](O)[C@]12O)[C@H]1[C@@H](C[C@H]3C)C1(C)C`, the viability (top concentration 46.1 µM) stood at 106.

Consider `Cn1c(=O)n(-c2ccc(C(C)(C)C#N)cc2)c2c3cc(-c4cnc5ccccc5c4)ccc3ncc21`, for which the viability (top concentration 46.1 µM) was determined as 73.3.

In the case of `O=[N+]([O-])c1ccc(Nc2ccccc2-c2ccccc2)c2nonc12`, the viability (top concentration 46.1 µM) worked out at 106.

For the molecule `CN(C)Cc1ccc(-c2nc3cccc4c3n2CCNC4=O)cc1`, the viability (top concentration 46.1 µM) stood at 88.8.

`CCN1C[C@H](C)[N]2C(=C(O)C3=C2\C(=N/N(CC4=CC=C(F)C(=C4)Cl)C3=O)C(=O)NC)C1=O` registered a viability (top concentration 46.1 µM) of 123.

As to `CN(C)/N=N/c1nc[nH]c1C(N)=O`, the viability (top concentration 46.1 µM) turned out to be 123.

In turn, `CCCCCCCCCC(=O)N[C@@H](Cc1c[nH]c2ccccc12)C(=O)N[C@H](CC(N)=O)C(=O)N[C@@H](CC(=O)O)C(=O)N[C@@H]1C(=O)NCC(=O)N[C@@H](CCCN)C(=O)N[C@@H](CC(=O)O)C(=O)N[C@H](C)C(=O)N[C@@H](CC(=O)O)C(=O)NCC(=O)N[C@H](CO)C(=O)N[C@@H]([C@@H](C)CC(=O)O)C(=O)N[C@@H](CC(=O)c2ccccc2N)C(=O)O[C@@H]1C` yielded a viability (top concentration 46.1 µM) of 101.

As to `CCN(CC)CCOc1ccc(/C(=C(\Cl)c2ccccc2)c2ccccc2)cc1`, under “top concentration 46.1 µM”, the viability was determined as 114.

Molecule `Cc1cc(OCCCc2c(C(=O)O)n(Cc3cccnc3)c3c(-c4c(COc5ccc(N6CCN([S+](C)(=O)[O-])CC6)cc5)nn(C)c4C)cccc23)cc(C)c1Cl` returned a viability (top concentration 46.1 µM) of 105.

Consider `Cc1cccc2c1CC[C@H](CN1CCC(c3c(Cl)cccc3Cl)CC1)C[C@@H]2O`, for which, where the note is “top concentration 46.1 µM”, the viability stood at 89.

As to `Clc1cccc(-c2nnnn2Cc2cccnc2)c1Cl`, the viability (top concentration 46.1 µM) turned out to be 113.

Consider `COc1cc(C)c(/C=C/C(C)=C/C=C/C(C)=C/C(=O)O)c(C)c1C`, for which the viability (top concentration 46.1 µM) was determined as 101.

In the case of `C=C1/C(=C\C=C2/CCC[C@]3(C)[C@@H]([C@H](C)/C=C/[C@H](C)C(C)C)CC[C@@H]23)C[C@@H](O)C[C@@H]1O`, the viability (top concentration 46.1 µM) was determined as 150.

Under “top concentration 46.1 µM”, `Cn1c(=O)c2c(ncn2CC(O)CO)n(C)c1=O` (configuration not stated) gave a viability of 138.

As to `FC(F)(F)c1ccc(/C=C/c2nc(COc3ccc(CCCCn4ccnn4)cc3)co2)cc1`, the viability (top concentration 46.1 µM) is 98.1.

`O=C1CCCC(=O)C1C(=O)c1ccc(C(F)(F)F)cc1[N+](=O)[O-]`: for the setting “top concentration 46.1 µM”, the viability was found to be 104.

Turning to `FC(F)(F)C1=CC=C2C(SCCCCCO\C3=C\O\C(CN4CCOCC4)=C/C3=O)=CC=NC2=C1`, the viability (top concentration 46.1 µM) amounted to 110.

Under “top concentration 46.1 µM”, `CO[C@@H]1[C@@H](O)[C@H](O)[C@@H](n2c3c(Cl)cccc3c3c4c(c5c6cccc(Cl)c6[nH]c5c32)C(=O)NC4=O)O[C@H]1CO` registered a viability of 112.

Molecule `COC(=O)Nc1nc2cc(Sc3ccccc3)ccc2[nH]1` yielded a viability (top concentration 46.1 µM) of 95.8.

Take `O=C(O)C(=O)c1cn(Cc2ccccc2)c2ccc(-c3ccc(OC(F)(F)F)cc3)cc12`: the viability (top concentration 46.1 µM) was found to be 111.

Under “top concentration 46.1 µM”, `CN1C(=O)\C(=C/C2=C1N=C(NC3CCOCC3)N=C2)OC4=C(F)C=C(F)C=C4` yielded a viability of 85.5.

In turn, `COc1c(Cl)cc2c([nH]c3cnccc32)c1NC(=O)c1cccnc1C` returned a viability (top concentration 46.1 µM) of 96.7.

`Nc1ncnc2c1ncn2[C@@H]1O[C@H](CO)[C@@H](O)[C@H]1O`: the viability (top concentration 46.1 µM) came to 132.

In turn, `CCCCCN(C)CCC(O)(P(=O)([O-])O)P(=O)(O)O` registered a viability (top concentration 46.1 µM) of 106.

With `Cc1nn(Cc2ccccc2Cl)c(C)c1CN(C)CC(O)COc1ccc(Cl)cc1` (configuration not stated), the viability (top concentration 46.1 µM) was found to be 90.9.

In turn, `FC1=CC=C(SC/2=N/N3\C=N/C(=O)/C(=C3/C=C2)C4=C(Cl)C=CC=C4Cl)C(=C1)F` returned a viability (top concentration 46.1 µM) of 108.

The record behind these values is the supplement of paper PMC6723410.
